One data set relates to HCT116 cells. Description: Cell viability assay. Particulars: Homo sapiens, HCT-116, 96 h, read-out: IC50 for killing HCT116 cells. The format is cell-based.
Data set [1] relates to acetylated histones in HCT116 cells. Description: Western blotting of histone acetylation after 1 h exposure. The format is cell-based. The settings on record: TSA 0.2 μM, other compounds 2 μM. (A western blot detects proteins with antibodies after separation by electrophoresis.)
Data set [2] relates to histone acetylation (H3K18ac) in HCT116 cells. Description: Drug washout, histone acetylation by Western blotting. The format is cell-based. The settings on record: 6 h pulse then washout, time counted from drug addition.
For a further data set, the system named is HepG2 cells. Description: Cell viability assay. The format is cell-based. The settings on record: CellTiter-Glo, 96 h. On the technique in general: ATP-based viability assays read luminescence as a measure of living cells.
Data set [3] has as its system MDA-MB-231 cells. Description: Cell cycle analysis by FACS. Particulars: MDA-MB-231, 24 h exposure. The format is cell-based. (Flow cytometry measures light scatter and fluorescence of single cells or particles in a stream.)
The subject of the next data set is HDACs in HCT116. The class given is cell-based. Particulars: HCT116 (Fig. 2C) and HepG2 cells (data not shown).
Data set [4] concerns MDA-MB-231 cells. Description: Cell viability assay. The class given is cell-based. Particulars: read-out: IC50 viability MDA-MB-231, CellTiter-Glo, 96 h (Fig. 3C).
The conditions of data set [5]: bovine, serum.
The test system of data set [6] is MDA-MB-231 cells. Description: Wound healing cell migration assay. The format is cell-based. The settings on record: MDA-MB-231 monolayer scratch; UF010 at 1 μM.
Another data set addresses HDAC2 (Homo sapiens, UniProt Q92769). Description: HDAC2 inhibition kinetics. The settings on record: purified HDAC2. The class given is biochemical.
A further data set relates to Sin3 complex. Description: Inhibition of the Sin3 complex. The settings on record: data not shown.
Data set [7] has as its system α-tubulin acetylation in HCT116 and A549 cells. Description: Western blotting of α-tubulin acetylation. The format is cell-based. Particulars: TSA 0.2 μM, UF010 2 μM, 1 h before lysis.

HDAC2, sequence (Q92769 whole entry): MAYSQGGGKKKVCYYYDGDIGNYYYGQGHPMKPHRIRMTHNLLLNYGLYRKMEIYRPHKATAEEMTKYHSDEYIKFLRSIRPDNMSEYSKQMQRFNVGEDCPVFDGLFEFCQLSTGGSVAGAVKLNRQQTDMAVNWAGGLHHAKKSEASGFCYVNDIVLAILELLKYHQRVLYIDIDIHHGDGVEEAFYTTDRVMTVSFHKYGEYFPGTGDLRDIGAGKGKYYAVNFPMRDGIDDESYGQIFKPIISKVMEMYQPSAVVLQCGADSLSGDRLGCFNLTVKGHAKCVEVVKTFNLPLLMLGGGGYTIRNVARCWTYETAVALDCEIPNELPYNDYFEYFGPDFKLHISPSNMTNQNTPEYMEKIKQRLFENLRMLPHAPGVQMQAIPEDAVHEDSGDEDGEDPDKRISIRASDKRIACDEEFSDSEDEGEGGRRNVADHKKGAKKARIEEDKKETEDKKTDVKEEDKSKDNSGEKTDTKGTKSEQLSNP

The term IC50 denotes the concentration that gives 50% inhibition. As to `Nc1ccccc1NC(=O)c1ccc(CNC(=O)OCc2cccnc2)cc1` [MS-275, entinostat], the IC50 in the data set on HCT116 cells worked out at 2.1 µM. The “induction of histone acetylation” value in [1] was “only slightly induced acetylation at several sites but failed to induce acetylation at most sites”. The “time up to which induced histone acetylation was maintained” value (from here on “time up”) in data set [2] is listed as “at least 48 h”.
Regarding `CCCCNNC(=O)c1ccc(N(C)C)cc1` [SR-3208], in the data set with HepG2 cells, the “fold more potent than UF010 in eliciting cytotoxicity” value is listed as 3 fold.
For the compound `O=C(CCCCCCC(=O)Nc1ccccc1)NO` [SAHA, vorinostat, reference compound], the “effect on cell cycle progression” value in the data set on MDA-MB-231 cells [3] was “inhibited G1/S progression at 1 μM but induced a strong G2/M block at 10 μM”.
As for `CCCCNNC(=O)c1ccc(Br)cc1` [UF010], the “fold more potent than MS-275 against HDACs in cells” value in the data set on HDACs in HCT116 was “about 5 fold”. In the data set on MDA-MB-231 cells [4], the IC50 is 29.1 µM. Further, the “half-life in cell culture medium” value in [5] is recorded as 15.8 h. For the same compound, in the data set with MDA-MB-231 cells [6], the “effect on cell migration” value is “markedly slowed migration”. Moreover, the “mechanism of HDAC2 inhibition vs. substrate” value at HDAC2 is on record as “competitive inhibitor”. Further, the “effect on cell cycle progression” value in the data set on MDA-MB-231 cells [3] is recorded as “mainly blocked G1/S transition”. The “induction of histone acetylation” value in [1] is on record as “consistently induced the accumulation of acetylated histones at all sites”. In addition, the “inhibition of the Sin3 complex” value with Sin3 complex is reported as “can inhibit”. In addition, the “time up” value in data set [2] is “up to 96 h”. Further, in data set [7], the “effect on α-tubulin acetylation” value was “had no effect”.
Turning to `C/C=C1\NC(=O)[C@H]2CSSCC/C=C/[C@H](CC(=O)N[C@H](C(C)C)C(=O)N2)OC(=O)[C@H](C(C)C)NC1=O` [Romi-depsin, romidepsin], the “time up” value in data set [2] is “up to 24 h”.
With `CC(/C=C/C(=O)NO)=C\[C@@H](C)C(=O)c1ccc(N(C)C)cc1` [TSA, trichostatin A, reference compound], the “induction of histone acetylation” value in [1] is on record as “strongly induced acetylation at some sites but weakly at other sites”. In addition, in [7], the “effect on α-tubulin acetylation” value is “dramatically increased”.

The record behind these values is article PMC4365786 (Chemistry & biology, 2015).
